Entries after “also recorded” stand apart in the source; their conditions may differ.
Legend:
Spirulina maxima = experiment: Growth of cultured algae after treatment, 500 L raceway pond; type: cell-based; settings: Example 15; 1M ammonia pH 10.0 1 h, saturated CO2 23 h, then air
Protocol: (§1) Modified SM (see Table 2) was used. […] Then air was sufficiently aerated. Twenty-four hours later, the algae could resume to grow.
(§2) Modified SM (see Table 2) was used. […] One hour later, CO2 was aerated to saturation for 23 hour continuously (about pH 5.8). […] Then air was sufficiently aerated. Twenty-four hours later, the algae could resume to grow.

diatom = experiment: Control of diatom contamination in culture of Chlorococcum sp., microscope examination; type: cell-based; settings: Example 8
Text: Chlorococcum sp. […] Modified BG11 medium (see Table 3) was used. […] Then air was sufficiently aerated.

Amoeba = experiment: Control of Amoeba contamination in microalgae culture, microscope examination; type: cell-based, Amoeba sp.
Text: If the contaminated alga liquid is identified as alkali tolerant contamination, CO2 is aerated into the culture system of microalgae, so as to lower the pH value. At this time, the appearance of the algae cells and the harmful organisms are observed under a microscope. When the harmful organisms has been inhibited or inactivated, air is sufficiently aerated into the culture system and the pH value is adjusted back to the optimal pH suitable for microalgae growth. In an embodiment, the concentration of CO2 reaches saturation. In an alternative embodiment, the pH value can be adjusted back to the optimal pH suitable for microalgae growth with ammonia (one of the nitrogen sources used by microalgae). In an embodiment, the pH value can be adjusted back to the optimal pH suitable for microalgae growth with NaOH. In an embodiment, the used NaOH is 1M NaOH. In an embodiment, the pH is 5.6-5.7 in the alga culture system with a saturated concentration of CO2. In an alternative embodiment, if the algae are marine algae (such as in the case of Dunaliella tertiolecta), the aerated CO2 can maintain pH within the range of 6.0-6.5. After that, if the harmful organisms have been determined to be in control (for instance, most of Amoeba have become spherical), salinity is reduced by diluting with water (salinity is the ratio between the mass of the solute in seawater and the mass of seawater), followed by sufficient aeration with air, so as to adjust the pH and salinity to a condition suitable for alga growth. In an embodiment (for example, in the case that the alga is Nannochloris sp. or Dunaliella tertiolecta), CO2 can be aerated intermittently. In an embodiment, CO2 can be aerated at an interval of two hours. In an embodiment, the culture system is maintained at pH 6.0-6.5 for 2 days, followed by decreasing 1% of the salinity by adding water. In an embodiment, the culture system is maintained with saturated CO2 for about 28 hours. In an embodiment, CO2 is kept at saturation for about 27 hours in the culture system. In an embodiment, saturated CO2 is aerated continuously into the culture system for 36 hours. In an embodiment, CO2 is aerated periodically at an interval of 2 hours (pH is in the range of 5.0-8.5), for 2 days.
Microscope examination is always used as one of the bases for determining the growth status in the process of microalgae culture. As a result, all the early-stage contamination is found by microscope examination. For example, when the alga liquid without microscope examination is contaminated, it's color generally changes into e.g. brown or brown spots are observed on the wall of the reactor, etc. However the contamination has become severer once the color change is observed directly.
Salinity was reduced by 1% (e.g. from 9% to 8%) by way of dilution with water. Then air was sufficiently aerated.
Chlorella sp. […] Modified SM medium (see Table 2) was used. […] Then air was sufficiently aerated.
Chlorococcum sp. […] Modified BG11 medium (see Table 3) was used. […] CO2 was aerated continuously.
Chlorococcum sp. […] Modified BG11 medium (see Table 3) was used. […] Then air was sufficiently aerated. Eighteen hours later, Chlorococcum sp. could resume to grow.
(§3) Nannochloris sp. […] Modified BG11 medium (see Table 4) was used. […] Then CO2 was aerated periodically at an interval of 2 hours (pH ranged within 5.0-8.5).
as §1
Then air was sufficiently aerated. Eighteen hours later, Chlorococcum sp. could resume to grow.
as §2

Nannochloris sp. = experiment: Growth of cultured algae after treatment, 1.5 m^3 glass plate reactor; type: cell-based; settings: Example 9; CO2 periodically at an interval of 2 hours, 2 days
Protocol: as §3

SMILES: O=C=O [CO2, carbon dioxide]
- time until algae resumed to grow after air aeration (Spirulina maxima): Twenty-four
- diatom, result of microscope examination (diatom; CO2 aerated continuously to saturation (about pH 5.6), thirty-six hours): some diatom lost intracellular pigment and only empty shells were left
- residual contaminating diatom after air aeration (diatom; saturated CO2 36 hours, then air sufficiently aerated): reduced activity, grew slowly, and would not become dominant algae; also recorded: grew slowly
- Amoeba, result of microscope examination (Amoeba; Example 1, Dunaliella tertiolecta culture, CO2 aerated intermittently, pH 6.0-6.5, two days): most Amoebae were found to become spherical
- Amoeba, result of microscope examination (Amoeba; Example 1, after CO2 pH 6.0-6.5 two days, salinity reduced by 1%, air aerated, twenty-four hours later): almost no Amoeba
- Amoeba, result of microscope examination (Amoeba; Example 3, Chlorella sp. culture, CO2 aerated continuously, saturated, pH 5.6-5.7, one hour): most Amoebae were found to become spherical and lose activity
- Amoeba, result of microscope examination (Amoeba; Example 3, saturated CO2, twenty-seven hours after the first hour (about 28 hours)): almost no intact Amoeba was observed; also recorded: almost no Amoeba was found
- Amoeba, result of microscope examination (Amoeba; Example 4, after 1M NaOH pH 11.0-11.8 1 h, CO2 to saturation (pH 5.6) 24 hours): no Amoeba
- Amoeba, result of microscope examination (Amoeba; Example 5, Chlorococcum sp. culture, CO2 saturated, pH about 5.6-5.7, one hour): most Amoeba turned into spherical, were inactivated and could not change shape or move
- Amoeba, result of microscope examination (Amoeba; Example 5, saturated CO2, twenty-seven hours later): almost no intact Amoeba were observed
- Amoeba, result of microscope examination (Amoeba; Example 7, after 1M NaOH pH 11.5-12.0 1 h, CO2 to saturation (about pH 5.6) 24 hour): no Amoeba
- Amoeba, result of microscope examination (Amoeba; Example 9, Nannochloris sp. culture, CO2 aerated periodically at an interval of 2 hours (pH 5.0-8.5), two days): no Amoeba was observed; also recorded: essentially in control
- Amoeba, result of microscope examination (Amoeba; Example 10, Spirulina maxima culture, after 1M NaOH pH 11.5-12.0 1 h, CO2 to saturation (about pH 5.8) 23 hour): no Amoeba
- Amoeba, result of microscope examination (Amoeba; Example 12, after 1M ammonia pH 9.0 1 h, CO2 to saturation (pH 5.6) 24 hours): no Amoeba
- Amoeba, result of microscope examination (Amoeba; Example 14, after 1M ammonia pH 9.0 1 h, CO2 to saturation (about pH 5.6) 24 hour): no Amoeba
- Amoeba, result of microscope examination (Amoeba; Example 15, Spirulina maxima culture, after 1M ammonia pH 10.0 1 h, CO2 to saturation (about pH 5.8) 23 hour): no Amoeba
- growth rate of the algae (Nannochloris sp.): rarely affected; also recorded: not affected

From patent publication US8759073B2, “Method for effectively controlling harmful organisms in large-scale culture of microalgae” (ENN Science & Technology Development Co., Ltd., priority 2009, dated 2014)
